{
  "source": "patent US20080140138A1",
  "about": "“Inhibition of inflammatory cytokine production by stimulation of brain muscarinic receptors” (priority 2002, published 2008)",
  "key": {"[1]": {"system": "carrageenan-induced hindpaw edema", "test": "Carrageenan-induced hindpaw edema", "assay_type": "in vivo, Lewis rats", "procedure": "Method of determining CNI-1493 receptor binding. CNI-1493 was tested at a single concentration (10 μM) in a panel of receptor binding assays by NovaScreen Biosciences Corporation (Hanover, Md.). Values were expressed as the percent inhibition of specific binding, and represented the average of duplicate tubes. Method of stereotactic intracerebroventricular injections. A rat model of intracerebroventricular (i.c.v.) injections was established in order to be able to directly deliver pharmacological agents into the brain of rats. This was necessary in order to separate drug effects on peripheral inflammation that occurred through central versus peripheral mechanisms. Lewis rats were anaesthetized with urethane (1 g/kg, i.p.) and xylazine (15 mg/rat, i.m. (intramuscular)). Rats were then placed in a stereotactic head frame (Stoelting, Wood Dale, Ill., USA). The incisor bar was adjusted until the plane defined by the lambda and bregma was parallel to the base plate. For i.c.v. injections the needle of a Hamilton syringe (25 μl) was positioned stereotactically above the lateral ventricle (0.2 mm and 1.5 mm posterior to bregma, 3.2 mm below the dura.) Solutions of the drugs tested were prepared in sterile endotoxin-free water, at the specified concentrations, and a 10-μl injection/rat was administered over 2 min, 1 h prior to either carrageenan injection, or to LPS.\nThe tested drugs, in either the carrageenan and/or LPS experiments, were: saline control; fluoxetine hydrochloride, (also known as Prozak) (0.01 mg/100 g); muscarine (50 μg/rat, 5 μg/rat, 0.5 μg/rat, 0.05 μg/rat, 0.005 μg/rat); 4-(N-[3-chlorophenyl]carbamoyloxy)-2-butynyltrimethylammonium chloride (also known as McN-A-343) (5 μg/rat); Muscarinic Toxin-3, (also known as MT-3) from Dendroaspis angusticeps snake venom (0.37 μg/rat); nicotine (10 μg/rat); CNI-1493 (1 μg/kg, 50 μg/rat); atropine (1 μg/kg, 5 μg/rat); CNI-1493 plus atropine (1 μg/kg of each of the drugs; 50 μg/rat, 5 μg/rat respectively); naloxone hydrochloride (2 μg/rat), CNI-1493 plus naloxone (50 μg/rat+5 μg/rat respectively); and morphine (20 μg/rat).\nMethod of carrageenan-induced hindpaw edema. Paw edema was induced in anaesthetized rats by injection of 1% solution of 1-carrageenan (100 μl) into the plantar surface of the left hindpaw. The right hindpaw was injected with the same volume of saline alone (as control). The thickness of the carrageenan-treated and saline-treated hindpaw was measured using a caliper at 3 h post carrageenan, and the difference between paw thickness calculated as an index of inflammation (paw swelling). Method of LPS injections and TNF determination. LPS (15 mg/kg, i.v.) was injected in the tail vein 1 h after drug injection. Blood was obtained 2 h post LPS injection by paraorbital bleeding. Serum TNF concentrations were determined by an L929 bioactivity assay. Method of assessing TNF by the L929 bioactivity assay. L929 cells were suspended in Dulbecco's minimal Eagle's medium (DMEM; GibcoBRL) supplemented with fetal bovine serum (10%; Hyclone) and penicillin/streptomycin (0.5%; Sigma Chemical Co.), and plated at 2×10^4 cells per well in 96-well flat-bottomed microtiter plates. After 24 h, media were respirated and replaced with medium containing cycloheximide (10 μg/ml; Sigma Chemical Co.) and the samples to be assayed/TNF standards. Plates were incubated overnight, at which time cell viability as a function of TNF concentration was assessed by the MTT assay. Absorbance values were converted to units per milliliter by comparison with a standard curve for rat TNF.\nIn a third set of experiments, rats were injected by i.c.v. means with either saline (n=4), CNI-1493 (5 μg/rat, n=3), CNI-1493 plus atropine (5 μg/rat each), or atropine (5 μg/rat). Carrageenan was given to the animals 1 h later, and paw edema was determined 3 h post carrageenan. […]"}, "LPS-induced serum TNF": {"system": "LPS-induced serum TNF", "test": "LPS-induced serum TNF after i.c.v. drug injection, L929 bioactivity assay", "assay_type": "in vivo, Lewis rats", "conditions": "i.c.v.; for effect in reducing LPS-induced serum TNF levels: nicotine 10 μg/rat, prozak 0.01 mg/10 g, LPS 15 mg/kg i.v. 1 h later", "description": "Method of stereotactic intracerebroventricular injections. […] Lewis rats were anaesthetized with urethane (1 g/kg, i.p.) and xylazine (15 mg/rat, i.m. (intramuscular)). Rats were then placed in a stereotactic head frame (Stoelting, Wood Dale, Ill., USA). The incisor bar was adjusted until the plane defined by the lambda and bregma was parallel to the base plate. For i.c.v. injections the needle of a Hamilton syringe (25 μl) was positioned stereotactically above the lateral ventricle (0.2 mm and 1.5 mm posterior to bregma, 3.2 mm below the dura.) Solutions of the drugs tested were prepared in sterile endotoxin-free water, at the specified concentrations, and a 10-μl injection/rat was administered over 2 min, 1 h prior to either carrageenan injection, or to LPS.\nIn one set of experiments, rats were injected by i.c.v. means with either saline (n=1), CNI-1493 (5 μg/rat, n=3), CNI-1493 plus atropine (5 μg/rat each), or atropine (5 μg/rat). LPS (15 mg/kg, i.v.) was given 1 h later. Blood was collected 2 h post LPS administration. Serum TNF was determined by the L929 assay."}, "[2]": {"system": "carrageenan-induced paw edema", "conditions": "low doses, direct administration to the brain; cited from earlier work"}, "LPS-induced TNF": {"system": "LPS-induced TNF", "test": "LPS-induced TNF in serum and tissues after muscarine, ELISA", "assay_type": "in vivo, rats", "conditions": "for LPS-induced heart TNF levels: heart tissue", "procedure": "Methods of stereotactic intracerebroventricular injection of muscarine into rats and LPS injections were as described in Example 1. TNF levels in serum and tissues were determined using an enzyme-inked immunosorbent assay (ELISA) according to the manufacturere's instructions (R & D Systems (Minneapolis, Minn.)).\nRats were injected by i.c.v. means with either saline (control) or muscarine (0.005 μg/kg body weight, 0.5 μg/kg body weight, 5.0 μg/kg body weight, or 50 μg/kg body weight). LPS was administered 1 hour later. Two hours after LPS administration the rats were sacrificed and blood, heart tissue, and spleen tissue were isolated from the rats. As shown in FIGS. 9A-9C, i.c.v. administration of muscarine inhibited LPS-induced serum, heart, and spleen (peripheral) TNF levels.\nMethods of LPS injections were as described in Example 1. Determination of serum and tissue TNF levels were as described in Example 4. Muscarine (or control saline) was intravenously injected into rats at concentrations of 0.05 μg/kg body weight, 0.5 μg/kg body weight, or 5.0 μg/kg body weight.\nRats were injected by i.v. means with either saline (control) or muscarine (0.05 μg/kg body weight, 0.5 μg/kg body weight, or 5.0 μg/kg body weight). LPS was administered 1 hour later. Two hours after LPS administration the rats were sacrificed and blood, liver tissue, heart tissue, and spleen tissue were isolated from the rats and assayed for TNF concentrations. As shown in FIGS. 10A-10D, intravenous administration of muscarine had no effect on LPS-induced serum, liver, heart, and spleen TNF levels."}, "[3]": {"conditions": "muscarine i.c.v. 0.005-50 μg/kg body weight"}, "[4]": {"conditions": "muscarine i.v. 0.05, 0.5, 5.0 μg/kg body weight"}},
  "note": "Counter-ions that a name gives are not always drawn.",
  "data": [
    {"smiles": "C[N+](C)(C)CC#CCOC(=O)Nc1cccc(Cl)c1.[Cl-]", "note": "[McN-A-343, 4-(N-[3-chlorophenyl]carbamoyloxy)-2-butynyltrimethylammonium chloride]", "values": [
      {"measurement": "inhibition of paw edema, i.c.v. compared with i.p. administration", "setting": "[1]; 5 μg/rat i.c.v. versus 5 mg/kg i.p.", "value": "comparable effect on inhibition of carrageenan-induced paw edema as a higher dose administered intraperitoneally"},
      {"measurement": "inhibition of carrageenan-induced paw edema", "setting": "[1]; i.c.v., McN-A-343 5 μg/rat, MT-3 0.37 μg/rat", "value": "significantly inhibits"}
    ]},
    {"smiles": "CN1[C@@H]2CC[C@H]1C[C@@H](OC(=O)C(CO)c1ccccc1)C2", "note": "(stereo partly shown) [atropine]", "values": [
      {"measurement": "effect of atropine on CNI-1493 inhibition of paw edema", "setting": "[1]; CNI-1493 plus atropine, 5 μg/rat each, i.c.v.", "value": "reverses the effect"},
      {"measurement": "effect of atropine on CNI-1493 inhibition of LPS-induced serum TNF", "setting": "LPS-induced serum TNF; CNI-1493 plus atropine, 5 μg/rat each", "value": "reversed the inhibitory effect of CNI-1493 to the TNF level of atropine alone"}
    ]},
    {"smiles": "C[N+](C)(C)CCOC(N)=O", "note": "[carbachol]", "values": [
      {"measurement": "effect on carrageenan-induced paw edema", "setting": "[2]", "value": "attenuation of paw edema"}
    ]},
    {"smiles": "C[C@@H]1O[C@H](C[N+](C)(C)C)C[C@H]1O", "note": "[muscarine]", "values": [
      {"measurement": "effect of vagotomy on muscarine inhibition of paw edema", "setting": "[1]; muscarine 0.5 μg/rat i.c.v., bilateral cervical vagotomy, P=0.015 SAL v. MUS, P=0.039 MUS v. MUS-VGX", "value": "Vagotomy clearly abrogates the inhibitory effects"},
      {"measurement": "inhibition of carrageenan-induced paw edema", "setting": "[1]; muscarine i.c.v. 5, 0.5, 0.05, 0.005 μg/rat", "value": "significantly inhibits carrageenan-induced paw edema in a dose-dependent manner"},
      {"measurement": "LPS-induced heart TNF levels", "setting": "LPS-induced TNF; [3]", "value": "inhibited"},
      {"measurement": "LPS-induced serum TNF levels", "setting": "LPS-induced TNF; [3]", "value": "inhibited"},
      {"measurement": "LPS-induced spleen TNF levels", "setting": "LPS-induced TNF; [3]", "value": "inhibited"},
      {"measurement": "LPS-induced heart TNF levels", "setting": "LPS-induced TNF; [4]", "value": "no effect"},
      {"measurement": "LPS-induced liver TNF levels", "setting": "LPS-induced TNF; muscarine i.v. 0.05, 0.5, 5.0 μg/kg body weight, liver", "value": "no effect"},
      {"measurement": "LPS-induced serum TNF levels", "setting": "LPS-induced TNF; [4]", "value": "no effect"},
      {"measurement": "LPS-induced spleen TNF levels", "setting": "LPS-induced TNF; [4]", "value": "no effect"}
    ]},
    {"smiles": "CN1CCCC1c1cccnc1", "note": "(stereo not shown) [nicotine]", "values": [
      {"measurement": "effect in reducing LPS-induced serum TNF levels", "setting": "LPS-induced serum TNF", "value": "Neither nicotine nor prozak had any effect"}
    ]},
    {"smiles": "CNCCC(Oc1ccc(C(F)(F)F)cc1)c1ccccc1", "note": "(stereo not shown) [prozak, fluoxetine hydrochloride]", "values": [
      {"measurement": "effect in reducing LPS-induced serum TNF levels", "setting": "LPS-induced serum TNF", "value": "Neither nicotine nor prozak had any effect"}
    ]}
  ]
}
